# Experimental data taken from patent EP1087941B9, “THIOLESTERS AND USES THEREOF” (THE UNITED STATES OF AMERICA, as represented by THE …, priority 1998, dated 1999).
# “Also recorded” adds a separate entry of the source. Read-outs that look alike come from different tables or passages of the source.
# Columns and labels:
# CEM-SS cells = experiment: cells; type: cell-based
# Source text: One exemplary means to determine antiviral activity is with CEM-SS cells and virus (e.g., HIV-1RF) (MOI = 0.01) using the XTT (2,3-bis[2-methoxy- 4-nitro-5-sulfophenyl] -5- [(phenylamino)carbonyl]-2H-tetrazolium hydroxide) cytoprotection assay, as described by Rice (1993) PNAS 90:9721-9724, and Rice (1997) Antimicrob. Agents Chemother. 41:419-426. Briefly, cells are infected with HIV-1RF (or other virus to be tested) in the presence of various dilutions of test compounds (thiolesters and controls). The cultures are incubated for seven days. During this time control cultures without protective compounds (i.e., compounds with anti-viral activity) replicate virus, induce syncytia, and result in about 90% cell death. The cell death is measured by XTT dye reduction. XTT is a soluble tetrazolimn dye that measures mitochondrial energy output, similar to MTT. Positive controls using dextran sulfate (an attachment inhibitor) or 3'-Azido -2'-3'-dideoxythymidine, AZT (a reverse transcriptase inhibitor) are added to each assay. Individual assays are done in duplicate using a sister plate method.
# Effective antiviral concentrations providing 50% cytoprotection (EC50), and cellular growth inhibitory concentrations causing 50% cytotoxicity (IC50) are calculated.
# [1] = target: T1, Virion-associated NCp7 proteins from cell-free HIV-1MN (Human immunodeficiency virus type 1 group M subtype B, UniProt P05888); experiment: Intravirion NCp7 cross-linking, non-reducing Western blotting
# T1 construct: an attack on the mature NCp7 retroviral zinc fingers in the cell-free virus; endogenous in cells
# Description: The interaction of zinc finger inhibitors, such as the thiolesters of the invention, with cell-free virus can result in modification of intravirion NCp7 protein and loss of infectivity. Virion-associated NCp7 proteins from cell-free HIV-1MN were treated with thiolester compounds 44 and 45. They were also evaluated by non-reducing Western blotting using HIV-1 NCp7-specific antibodies. […] Cross-linking by compound 45 was due to formation of intermolecular disulfide bonds because reduction with 2-mercaptoethanol (β-ME) completely reversed the gel retardation.
# Virion cross linking was performed as described by Rice (1995) Science 270:1194-1197 and Turpin (1997) Antiviral Chem. Chemother. 8:60-67. Briefly, highly purified HIV-1 MN (11.8 µg total protein) was incubated for 2 hour with concentrations of compound. Virions were concentrated and residual compound was removed by centrifugation (18,000 x g, 1 h, 4°C). The viral pellet was solubilized in 0.5 M Tris-HCl,(pH 6.8), 50% glycerol, 8% SDS and 0.4% bromophenol blue and proteins resolved by Western blotting. Western blotting to detect the expression of HIV-1 proteins in U1 cells or virus pellets for virion cross-linking experiments was carried out as described by Turpin (1996) J. Virol. 70:6180-6189. Briefly, 50 µg of total cellular protein for U1 experiments or the total virion pellet (11.8 µg total viral protein) for NCp7 cross linking studies was resolved on 4 to 20% polyacrylamide gels in SDS with Tris-Glycine (Novex, San Diego CA). Samples for reduced gels were boiled for 5 min in the presence of 5% β-ME prior to loading. Resolved proteins were electroblotted on to polyvinylidene difluoride (PVDF) membranes, and HIV-1 specific proteins were detected using a mixture of goat anti- HIV-1 NCp7 and p24 or anti-NCp7 for virion proteins alone (a kind gift of L. E. Henderson, AIDS Vaccine Program NCI-FCRDC, Frederick, MD). Western blots were developed using standard chemiluminescence methodologies, as produced and described by Dupont-NEN, Wilmington, DE.
# Purified concentrated retrovirus and antisera against the purified NC protein of the virus can be used to test the ability of a specific compound to penetrate the virus and react with the NC protein by forming disulfide complexes in the core of the virus. Compound are mixed with the whole retrovirus under reaction conditions appropriate for the compound. The virus is then removed from the reagent by centrifugation and disrupted in, e.g., standard SDS-PAGE sample buffer with (reduced) and without (non-reduced) 2-mercaptoethanol. […] Thus, compounds of interest (i.e., those which cause cross-linking), including the thiolesters of the invention, reduce the amount of monomeric zinc finger protein detected.
# Sp1 = target: T2, Sp1 (Homo sapiens, UniProt P08047); experiment: Sp1 super gel shift EMSA with K562 cell nuclear extracts (specificity); type: biochemical; conditions: specificity for CCHC versus CCHH zinc finger
# T2 construct: K562 cell nuclear extracts, and antibodies for Sp1 (Spl[PEP2]-G); host or cells: K562 cell nuclear extracts
# T2 sequence (P08047 whole entry): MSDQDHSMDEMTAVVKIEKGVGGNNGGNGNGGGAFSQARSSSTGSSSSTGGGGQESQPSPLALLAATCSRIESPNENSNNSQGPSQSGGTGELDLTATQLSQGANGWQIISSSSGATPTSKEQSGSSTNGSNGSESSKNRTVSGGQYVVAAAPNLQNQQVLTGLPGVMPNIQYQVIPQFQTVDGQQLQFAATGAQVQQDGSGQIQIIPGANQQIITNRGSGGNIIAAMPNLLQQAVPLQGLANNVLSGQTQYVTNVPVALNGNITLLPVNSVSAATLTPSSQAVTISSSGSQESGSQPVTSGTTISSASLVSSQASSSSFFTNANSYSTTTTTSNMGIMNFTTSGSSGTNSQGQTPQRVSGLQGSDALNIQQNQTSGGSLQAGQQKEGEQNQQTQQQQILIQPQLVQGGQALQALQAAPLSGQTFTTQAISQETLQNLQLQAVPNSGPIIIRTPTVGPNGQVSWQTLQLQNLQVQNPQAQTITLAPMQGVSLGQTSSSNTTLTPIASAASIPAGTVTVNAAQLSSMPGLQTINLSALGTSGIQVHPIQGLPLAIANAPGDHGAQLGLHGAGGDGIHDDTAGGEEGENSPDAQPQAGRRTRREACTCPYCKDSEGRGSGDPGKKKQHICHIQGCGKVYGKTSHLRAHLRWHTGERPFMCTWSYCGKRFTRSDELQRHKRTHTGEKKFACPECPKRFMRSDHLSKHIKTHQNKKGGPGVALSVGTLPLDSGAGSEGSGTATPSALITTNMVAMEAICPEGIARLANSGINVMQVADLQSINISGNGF
# Description: To determine if compound 44, 45 or 47 binding activity was specific for CCHC zinc fingers, a super gel shift EMSA after treatment of K562 cell nuclear extracts with the compounds was performed. This was followed by super shifting with Spl-specific antibody. Spl was chosen because it is a cellular transcription factor that contains three copies of a classical type CCHH zinc finger motif that are required for Sp1 binding to its DNA target. […] Super gel shifting to determine the specificity of zinc finger reactive compounds was carried out using an Sp1 consensus oligomer (Stratagene, La Jolla, CA), K562 cell nuclear extracts, and antibodies for Sp1 (Spl[PEP2]-G) (extracts and Spl Abs from Santa Cruz Biotechnology, Inc., Santa Cruz, CA). The binding reactions of oligonucleotides with K562 nuclear extract, as well as electrophoretic conditions were carried out as described in the Gelshift Buffer Kit, Stratagene, La Jolla, CA.
# [2] = Homo sapiens, CEM-SS, Table 5, 50% cytotoxicity, read-out: Antiviral Activity IC50%
# [3] = Homo sapiens, CEM-SS, Table 6, 50% cytotoxicity, read-out: Antiviral Activity IC50
compound,measurement,setting,value
"CC(=O)NS(=O)(=O)c1ccc(NC(=O)c2ccccc2SC(=O)CCCCBr)cc1 [Compound 44, N-[2-(5-bromovaleroylthio)benzoyl]sulfacetamide]",IC50,CEM-SS cells; [2],184 µM
same,IC50,CEM-SS cells; [3],184 µM
same,intravirion NCp7 cross-linking,[1],very poor cross-linking agent
same,effect on super shifting of Sp1 bound to its DNA target,Sp1,failed to alter the pattern of super shifting
"CC(=O)NS(=O)(=O)c1ccc(NC(=O)c2ccccc2SC(=O)CCCC[n+]2ccccc2)cc1 [Compound 45, N-[2-(5-pyridinio-valeroylthio)benzoyl]sulfacetamide bromide]",IC50,CEM-SS cells; [2],> 316 µM
same,IC50,CEM-SS cells; [3],> 316 µM
same,IC50,"CEM-SS cells; Table 10, 50% cytotoxicity, read-out: Antiviral Activity IC50%",> 316 µM
same,toxicity at the high test dose,CEM-SS cells; high test dose of 316 µM,no toxicity
same,intravirion NCp7 cross-linking,[1],extensive cross-linking of NCp7; also recorded: strong cross-linker of intravirion NCp7
same,effect on super shifting of Sp1 bound to its DNA target,Sp1,failed to alter the pattern of super shifting
O=C(CCCC[n+]1ccccc1)Sc1ccccc1C(=O)Nc1ccc(S(=O)(=O)c2ccc([N+](=O)[O-])cc2)cc1 [Compound 47],IC50,"CEM-SS cells; Homo sapiens, CEM-SS, read-out: Antiviral Activity IC50",> 316 µM
same,intravirion NCp7 cross-linking,[1],did not effectively initiate NCp7 cross-linking
same,effect on super shifting of Sp1 bound to its DNA target,Sp1,failed to alter the pattern of super shifting
